Test results taken from US20050014699A1, “Combinations of enzyme inhibitor-containing preparations and the use thereof” (priority 2000, published 2005).

What was measured:
Assay type in all cases: cell-based
[1] = tested on: human T cell line KARPAS-299; assay: WST-1 cell proliferation assay, KARPAS-299 cells; settings: single and simultaneous administration of I49 and APN inhibitors Actinonin and Probestin (FIG. 8)
Description: FIG. 8: The KARPAS-299 cells were incubated without addition (control) and in the presence of single inhibitors mentioned above as well as in the presence of combinations thereof, respectively. Subsequently, the number of metabolically active cells was determined by using the commercially available WST-1 cell proliferation assay (Takara Inc.) in accordance with the provisions of the manufacturer.

[2] = tested on: human peripheric T lymphocytes; assay: DNA synthesis of human peripheric T lymphocytes, 3[H]-thymidine incorporation; settings: 72 h incubation
Description: The T cells were incubated for 72 h in the presence of said inhibitors and subsequently, the DNA synthesis rate was determined via a measurement of the ^3[H]-thymidin incorporation, as was described by Reinhold et al. [D. Reinhold et al,: “Inhibitors of dipeptidyl peptidase IV induce secretion of transforming growth factor β1 in PWM-stimulated PBMNC and T cells”, Immunology 1997, 91, 354-360].
Human peripheric T cells were incubated over 3 days with the concentrations of the inhibitors shown. Subsequently, ^3[H]-methyl thymidine was added to the culture medium, and the amount of ^3[H]-thymidine inserted into the DNA was measured after further 6 hours.
The T cells were incubated for 72 h in the presence of said inhibitors, and the DNA synthesis rate was determined subsequently by the measurement of the ^3[H]-thymidine incorporation, as was described by Reinhold et al. [D. Reinhold et al.: “Inhibitors of dipeptidyl peptidase IV induce secretion of transforming growth factor β1 in PWM-stimulated PBMNC and T cells”, Immunology 1997, 91, 354-360].
FIG. 3 show a the synergistic and dose-dependent effect of inhibitors of DP IV (I49) and of prolyl oligopeptidase (Boc-Ala-Thia) on the DNA synthesis of human peripheric T lymphocytes. Human T cells were incubated for three days with the concentrations of inhibitors mentioned above. Subsequently, ^3[H]-methyl thymidine was added to the culture medium, and the amount of ^3[H]-thymidine incorporated into the DNA was measured after further 6 hours.
Human T cells were incubated for three days with the concentrations of inhibitors mentioned above. Subsequently, ^3[H]-methyl thymidine was added to the culture medium, and the amount of ^3[H]-thymidine incorporated into the DNA was measured after further 6 hours.

[3] = tested on: PHA-activated human mononuclear cells (MNZ); assay: WST-1 cell proliferation assay, PHA-activated human mononuclear cells (MNZ)
Description: FIG. 7: The MNZ were incubated for a time period of 72 h without addition (control), with an addition of the mitogenic lectin phytohemagglutinin (PHA), and with the addition of PHA and the inhibitors mentioned above, respectively. Subsequently, the number amount of metabolically active cells was determined by using the commercially available WST-1 cell proliferation assay (Takara Inc.) in accordance with the provisions of the manufacturer.
FIG. 10: The mononuclear cells (MNZ) were incubated for a time period of 72 h in the presence of the inhibitors mentioned above single and in combination. Subsequently, the number of metabolically active cells was determined by using the commercially available WST-1 cell proliferation assay (Takara Inc.) in accordance with the provisions of the manufacturer.

[4] = tested on: activated human peripheric T cells; assay: WST-1 cell proliferation assay, activated human peripheric T cells; settings: single or simultaneous administration of I49 and APN inhibitors Actinonin and Probestin; activation by phytohemagglutinine and phorbol-12-myristate-13-acetate; 72 h (FIG. 9)
Description: FIG. 9: The T cells, with the exception of the untreated control, were activated by an addition of phytohemagglutinine and phorbol-12-myristate-13-acetate to the culture medium and were incubated for a time period of 72 h in the presence of the above-mentioned inhibitors single and in combination. Subsequently, the number of metabolically active cells was determined by using the commercially available WST-1 cell proliferation assay (Takara Inc.) in accordance with the provisions of the manufacturer.

[5] = tested on: human peripheric mononuclear cells (MNZ); assay: DNA synthesis of human peripheric mononuclear cells (MNZ), 3[H]-thymidine incorporation; settings: 72 h incubation
Description: The MNZ were incubated for 72 h in the presence of said inhibitors, and the DNA synthesis rate was determined subsequently by the measurement of the ^3[H]-thymidine incorporation, as was described by Reinhold et al. [D. Reinhold et al.: “Inhibitors of dipeptidyl peptidase IV induce secretion of transforming growth factor β1 in PWM-stimulated PBMNC and T cells”, Immunology 1997, 91, 354-360].
Human MNZ were incubated for three days with the concentrations of inhibitors mentioned above. Subsequently, ^3[H]-methyl thymidine was added to the culture medium, and the amount of ^3[H]-thymidine incorporated into the DNA was measured after further 6 hours.
The MNZ were incubated for 72 h in the presence of said inhibitors, and the DNA synthesis rate was determined subsequently by the measurement of the ^3[H]-thymidine incorporation, as was described by Reinhold et al. [D. Reinhold et al.; “Inhibitors of dipeptidyl peptidase IV induce secretion of transforming growth factor β1 in PWM-stimulated PBMNC and T cells”, Immunology 1997, 91, 354-360].

[6] = simultaneous administration of DP IV inhibitor I49 and APN inhibitor Actinonin, dose-dependent (FIG. 1)
[7] = single and simultaneous administration of I49 and Actinonin, PHA, 72 h (FIG. 7)
[8] = simultaneous administration of DP IV inhibitor I49 and APN inhibitor actinonine, dose-dependent (FIG. 2)
[9] = single or simultaneous administration of I49 and APP inhibitor Apstatin, PHA-activated, 72 h (FIG. 10)
[10] = simultaneous administration of DP IV inhibitor I49 and prolyl oligopeptidase inhibitor Boc-Ala-thiazolidid, dose-dependent (FIG. 3)
[11] = simultaneous administration of DP IV inhibitor I49 and prolyl oligopeptidase inhibitor Boc-Ala-Thiazolidid, dose-dependent (FIG. 4)
[12] = simultaneous administration of DP IV inhibitor I49 and ACE inhibitor Captopril, dose-dependent (FIG. 5)
[13] = simultaneous administration of DP IV inhibitor I49 and ACE inhibitor Captopril, dose-dependent (FIG. 6)

CCCCC[C@H](CC(=O)NO)C(=O)N[C@H](C(=O)N1CCC[C@H]1CO)C(C)C [Actinonin] was tested, and the “inhibition of proliferation (number of metabolically active cells)” value (“inhibition of proliferation” for short) [1] was “Inhibition of the Proliferation”, the “inhibition of DNA synthesis” value [2, 6] was “inhibited in a superadditive manner” and the “inhibition of proliferation” value [3, 7] was “Inhibition of the Proliferation”. For the same compound, the “inhibition of proliferation” value [4] was “Inhibition of the Proliferation” and the “inhibition of DNA synthesis” value [5, 8] was “inhibited in a superadditive manner”.
For C[C@H](NC(=O)[C@@H]1CCCN1C(=O)[C@@H]1CCCN1C(=O)[C@@H](O)[C@H](N)Cc1ccccc1)C(N)=O [Apstatin], the “inhibition of proliferation” value [3, 9] was “Inhibition of the Proliferation”.
For CC(NC(=O)OC(C)(C)C)C(=O)N1CCSC1 (stereo not drawn) [Boc-Ala-thiazolidid], the “inhibition of DNA synthesis” value [2, 10] was “inhibited in a superadditive manner” and the “inhibition of DNA synthesis” value [5, 11] was “inhibited in a superadditive manner”.
With C[C@H](CS)C(=O)N1CCC[C@H]1C(=O)O [Captopril] the “inhibition of DNA synthesis” value [2, 12] was “inhibited in a superadditive manner” and the “inhibition of DNA synthesis” value [5, 13] was “inhibited in a superadditive manner”.
NC(CCCCNC(=O)OCc1ccc([N+](=O)[O-])cc1)C(=O)N1CCSC1 (stereo not shown) [I49, Lys[Z(NO2)]-thiazolidid] was tested, and the “inhibition of proliferation” value [1] was “Inhibition of the Proliferation”, the “inhibition of DNA synthesis” value [2, 12] was “inhibited in a superadditive manner” and the “inhibition of DNA synthesis” value [2, 6] was “inhibited in a superadditive manner”. The “inhibition of DNA synthesis” value [2, 10] was “inhibited in a superadditive manner”, the “inhibition of proliferation” value [3, 7] was “Inhibition of the Proliferation” and the “inhibition of proliferation” value [3, 9] was “Inhibition of the Proliferation”. The “inhibition of proliferation” value [4] was “Inhibition of the Proliferation”, the “inhibition of DNA synthesis” value [5, 13] was “inhibited in a superadditive manner” and the “inhibition of DNA synthesis” value [5, 8] was “inhibited in a superadditive manner”. The “inhibition of DNA synthesis” value [5, 11] was “inhibited in a superadditive manner”.
For CC(C)C[C@H](NC(=O)[C@@H](O)[C@H](N)Cc1ccccc1)C(=O)N1CCC[C@H]1C(=O)N1CCC[C@H]1C(=O)O [Probestin], the “inhibition of proliferation” value [1] was “Inhibition of the Proliferation” and the “inhibition of proliferation” value [4] was “Inhibition of the Proliferation”.
